{
  "source": "paper PMC8869338",
  "about": "(Biosensors, 2022)",
  "tested_on": "T1, RsD2HGDH",
  "T1 construct": "gene D2HGDH",
  "assay_type": "biochemical, Ralstonia solanacearum",
  "settings": "free enzyme; 100 µM DCIP, 200 µM PMS, 50 mM PB pH 7.0 (assay of b15), 25 °C",
  "data": [
    {"smiles": "O=C(O)CC[C@@H](O)C(=O)O", "note": "[D2HG]", "values": [
      {"measurement": "Km", "result": 433, "unit": "µM"}
    ]}
  ]
}
